Where two headings read alike, the source gives them in different places.
What was measured:
[1] = molecular target: T1, pancreatic α-amylase (Sus scrofa, UniProt P00690); assay: α-Amylase inhibitory activity (starch substrate); type: biochemical, porcine; details: isolated compounds, Table S7; read-out: Inhibition (IC50) α-Amylase
T1 construct: pancreatic α-amylase (ex -porcine pancreas, EC 3.2.1.1, Sigma); purchased Sigma; host or cells: porcine pancreas
T1 sequence (P00690 16-511): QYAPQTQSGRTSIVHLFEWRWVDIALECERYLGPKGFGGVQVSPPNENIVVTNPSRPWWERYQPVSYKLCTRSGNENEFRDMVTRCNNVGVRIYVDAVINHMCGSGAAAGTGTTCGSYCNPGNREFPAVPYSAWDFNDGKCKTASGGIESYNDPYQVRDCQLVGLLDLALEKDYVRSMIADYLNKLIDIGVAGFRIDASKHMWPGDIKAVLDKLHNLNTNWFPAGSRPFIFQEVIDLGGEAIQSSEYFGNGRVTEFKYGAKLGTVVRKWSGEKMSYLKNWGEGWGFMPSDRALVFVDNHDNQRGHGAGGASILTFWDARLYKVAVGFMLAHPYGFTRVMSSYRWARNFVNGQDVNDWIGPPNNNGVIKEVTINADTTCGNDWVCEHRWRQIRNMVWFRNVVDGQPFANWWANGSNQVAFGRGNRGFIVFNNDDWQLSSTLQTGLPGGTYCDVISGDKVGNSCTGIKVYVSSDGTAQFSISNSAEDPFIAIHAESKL
Experimental: (§1) Phenolic acids and flavonoids used in HPLC analysis as well as all other reagents for biological investigations were obtained from Sigma Chemical Company […]
(§2) Inhibitory activity against key enzymes related to metabolic syndrome (MS) All assays were performed in 96-well plates. Stock solutions of the extract (100 mg/mL), fractions (100 mg/mL), and isolated compounds (1000 µM) were prepared. Tested samples that exceeded […]
(§3) inhibitory concentration (IC50). The percentage of enzyme inhibition was calculated according to […]
(§4) % Inhibition = (A−B) − (C−D) x 100 […]
α-Amylase inhibitory activity
α-Amylase inhibition assays were performed according to a previously described method. The tested samples we re incubated with pancreatic α-amylase (ex -porcine pancreas, EC 3.2.1.1, Sigma) followed by the addition of starch and iodine -potassium iodide solution for colo r development.
Starch [50 μL, 1% phosphate-buffered saline (PBS)] was mixed as substrate with 13 U mL−1 pancreatic α-amylase prepared in PBS, and 50 μL of test solution. A blank was performed using PBS. To initiate the reaction, the enzyme was added to the assay solution after being pre-incubated separately at 37 °C in a water bath for 10 min. Dinitrosalicylic acid reagent (1 mL) was added and […]
heated at 85 °C for 15 min. Then, it was cooled to room temperature and distilled water (1 mL) […]
was added. […] The absorbance was recorded at 540 nm.
Pancreatic lipase inhibitory activity […]

[2] = molecular target: T2, inducible nitric oxide synthase (iNOS) (Mus musculus, UniProt P29477); assay: iNOS inhibitory activity in LPS-induced RAW264.7 macrophages (nitrite, Griess reagent); type: cell-based; details: isolated compounds, Table S7, RAW264.7 cells, read-out: Inhibition (IC50) iNOS (converted)
T2 construct: endogenous in cells; host or cells: RAW264.7 mouse macrophages, LPS-induced
T2 sequence (P29477 1-1144): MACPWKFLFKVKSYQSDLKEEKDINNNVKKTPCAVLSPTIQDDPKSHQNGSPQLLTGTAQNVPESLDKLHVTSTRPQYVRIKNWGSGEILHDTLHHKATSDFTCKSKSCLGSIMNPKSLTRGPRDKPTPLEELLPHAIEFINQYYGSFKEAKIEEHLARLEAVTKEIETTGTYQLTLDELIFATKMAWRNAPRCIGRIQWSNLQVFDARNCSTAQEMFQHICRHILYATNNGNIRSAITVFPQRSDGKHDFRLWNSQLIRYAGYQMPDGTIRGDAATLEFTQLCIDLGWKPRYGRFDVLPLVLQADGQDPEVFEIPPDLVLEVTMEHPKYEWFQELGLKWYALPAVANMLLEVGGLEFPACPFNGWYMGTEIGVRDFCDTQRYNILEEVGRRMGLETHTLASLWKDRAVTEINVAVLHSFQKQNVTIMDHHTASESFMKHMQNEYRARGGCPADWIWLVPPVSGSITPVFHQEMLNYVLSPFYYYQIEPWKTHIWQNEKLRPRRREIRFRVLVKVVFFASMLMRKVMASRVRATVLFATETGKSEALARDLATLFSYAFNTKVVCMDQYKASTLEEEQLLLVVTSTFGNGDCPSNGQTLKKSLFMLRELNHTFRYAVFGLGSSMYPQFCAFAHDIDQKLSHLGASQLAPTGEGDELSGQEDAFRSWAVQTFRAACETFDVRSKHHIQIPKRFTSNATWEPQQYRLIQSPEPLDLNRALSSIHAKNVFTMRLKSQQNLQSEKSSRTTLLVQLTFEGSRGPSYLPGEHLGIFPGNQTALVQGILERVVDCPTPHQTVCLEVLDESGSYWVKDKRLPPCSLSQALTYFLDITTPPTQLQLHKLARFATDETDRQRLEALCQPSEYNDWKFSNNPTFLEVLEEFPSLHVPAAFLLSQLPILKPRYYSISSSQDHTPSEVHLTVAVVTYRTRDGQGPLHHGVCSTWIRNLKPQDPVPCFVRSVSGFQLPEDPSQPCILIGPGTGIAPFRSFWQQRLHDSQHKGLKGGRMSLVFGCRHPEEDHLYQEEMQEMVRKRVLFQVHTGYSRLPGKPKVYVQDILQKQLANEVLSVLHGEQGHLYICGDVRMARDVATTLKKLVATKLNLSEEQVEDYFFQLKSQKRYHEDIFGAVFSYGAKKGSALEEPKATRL
Experimental: as §1, §2, §3, §4
Inducible nitric oxide synthase (iNOS) inhibitory activity iNOS inhibitory activity was determined in mouse macrophage cells (RAW264.7, Shanghai BOGO Industrial Co., Ltd., China) according to a previously designed method. Phenol red-free RPMI medium from Thermo-Fisher was used to develop macrophages. It was supplemented with 10% bovine calf serum, 100 U/mL of penicillin G sodium from Sigma-Aldrich, and 100 µg/mL of streptomycin (Sigma-Aldrich). Cells (50,000/well) were seeded onto 96-well plates, which were […]

[3] = molecular target: T3, α-glucosidase (Saccharomyces cerevisiae, UniProt P53341); assay: biochemical; details: isolated compounds, Table S7
T3 construct: purchased Sigma
T3 sequence (P53341 whole entry): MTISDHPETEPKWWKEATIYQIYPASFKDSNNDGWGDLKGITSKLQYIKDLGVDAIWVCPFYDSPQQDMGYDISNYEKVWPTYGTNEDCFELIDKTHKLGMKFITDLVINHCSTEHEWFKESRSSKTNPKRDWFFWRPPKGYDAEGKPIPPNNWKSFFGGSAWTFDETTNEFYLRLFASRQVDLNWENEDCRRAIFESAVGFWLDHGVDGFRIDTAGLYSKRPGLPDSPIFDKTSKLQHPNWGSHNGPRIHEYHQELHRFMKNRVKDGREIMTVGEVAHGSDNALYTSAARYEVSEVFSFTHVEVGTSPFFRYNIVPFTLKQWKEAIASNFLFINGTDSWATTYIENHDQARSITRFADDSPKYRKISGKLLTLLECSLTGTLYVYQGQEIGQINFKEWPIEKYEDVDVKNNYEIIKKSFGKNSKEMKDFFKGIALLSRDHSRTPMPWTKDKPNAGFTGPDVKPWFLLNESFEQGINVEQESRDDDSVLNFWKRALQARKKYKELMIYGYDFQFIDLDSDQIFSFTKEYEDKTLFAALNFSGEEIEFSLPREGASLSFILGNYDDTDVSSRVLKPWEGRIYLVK
Experimental: as §1, §2, §3
% Inhibition = (A−B) − (C−D) x 100
A is the activity of the enzyme without tested samples, B is the control of A with neither tested samples nor enzyme, C, and D denote the activity of the test solutions with and without the tested […]
α-Glucosidase inhibitory activity
α-Glucosidase inhibition assays were performed according to a previously described method.
The tested samples were mixed with glutathione, α-glucosidase solution (Saccharomyces cerevisiae, EC 3.2.1.20, Sigma) in phosphate buffer , and the chromogenic substrate p-nitrophenyl-D-glucopyranoside (pNPG). Tested samples (50 μL) were incubated with α-glucosidase (100 μL.
0.6 U mL−1) in the presence of phosphate buffer (0.1 M, pH 6.9) for 10 min at 37 °C. Fifty μL of […] pNPG in phosphate buffer (pH 6.9) was added, and the mixture was incubated again for 12 min at 37 °C. Enzyme activity was evaluated by measuring ρ-nitrophenol release from the ρNPG […]
Absorbance at 405 nm was measured. […]

[4] = Inhibition (IC50) α-Glucosidase

COc1cc(-c2oc3cc(O)cc(O)c3c(=O)c2O[C@@H]2O[C@H](CO)[C@@H](O)[C@H](O)[C@H]2O)ccc1O [P3, isorhamnetin-3-O-β-D-glucopyranoside]
IC50 [1]: 2310 ± 870 nM | IC50 [2]: 4.89 ± 0.78 µM | IC50 ([3]; read-out: Inhibition (IC50) α-Glucosidase): 1370 ± 860 nM

O=c1c(O[C@@H]2O[C@H](CO)[C@@H](O)[C@H](O)[C@H]2O)c(-c2ccc(O)c(O)c2)oc2cc(O)cc(O)c12 [P2, isoquercitrin]
IC50 [1]: 1540 ± 180 nM | IC50 [2]: 4.8 ± 0.99 µM | IC50 [3, 4]: 1120 ± 380 nM

O=C(/C=C/c1ccc(O)c(O)c1)O[C@@H]1C[C@](O)(C(=O)O)C[C@@H](O)[C@H]1O [P4, chlorogenic acid]
IC50 [1]: 3780 ± 190 nM | IC50 [2]: 4.79 ± 0.89 µM

O=C(O)/C=C/c1ccccc1 [P6, cinnamic acid]
IC50 [1]: 1020 ± 630 nM | IC50 [2]: 4.76 ± 0.25 µM | IC50 [3, 4]: 750 nM

C[C@@H]1O[C@@H](OC[C@H]2O[C@@H](Oc3c(-c4ccc(O)c(O)c4)oc4cc(O)cc(O)c4c3=O)[C@H](O)[C@@H](O)[C@@H]2O)[C@H](O)[C@H](O)[C@H]1O [P1, rutin]
IC50 [1]: 3540 ± 210 nM | IC50 [2]: 4.99 ± 1.94 µM
